Data published in ChEMBL document CHEMBL1138689, “Synthesis of 5a-carba-hexopyranoses and hexopyranosylamines, as well as 5a,5a'-dicarbadisaccharides, from 3,8-dioxatricyclo[4.2.1.0(2,4)]nonan-9-ol: glycosidase inhibitory activity of N-substituted 5a-carba-beta-gluco- and beta-galactopyranosylamines, and derivatives thereof” (Bioorg Med Chem Lett, 2004).

Tests used:
[1] = Inhibition of Alpha-galactosidase of green coffee beans
[2] = Inhibition of Alpha-galactosidase of green coffee beans; […]
Beta-galactosidase = biological target: T1, Beta-galactosidase (Bos taurus, UniProt Q58D55); assay: Inhibition of Beta-galactosidase of bovine liver; […]
T1 sequence (Q58D55 whole entry): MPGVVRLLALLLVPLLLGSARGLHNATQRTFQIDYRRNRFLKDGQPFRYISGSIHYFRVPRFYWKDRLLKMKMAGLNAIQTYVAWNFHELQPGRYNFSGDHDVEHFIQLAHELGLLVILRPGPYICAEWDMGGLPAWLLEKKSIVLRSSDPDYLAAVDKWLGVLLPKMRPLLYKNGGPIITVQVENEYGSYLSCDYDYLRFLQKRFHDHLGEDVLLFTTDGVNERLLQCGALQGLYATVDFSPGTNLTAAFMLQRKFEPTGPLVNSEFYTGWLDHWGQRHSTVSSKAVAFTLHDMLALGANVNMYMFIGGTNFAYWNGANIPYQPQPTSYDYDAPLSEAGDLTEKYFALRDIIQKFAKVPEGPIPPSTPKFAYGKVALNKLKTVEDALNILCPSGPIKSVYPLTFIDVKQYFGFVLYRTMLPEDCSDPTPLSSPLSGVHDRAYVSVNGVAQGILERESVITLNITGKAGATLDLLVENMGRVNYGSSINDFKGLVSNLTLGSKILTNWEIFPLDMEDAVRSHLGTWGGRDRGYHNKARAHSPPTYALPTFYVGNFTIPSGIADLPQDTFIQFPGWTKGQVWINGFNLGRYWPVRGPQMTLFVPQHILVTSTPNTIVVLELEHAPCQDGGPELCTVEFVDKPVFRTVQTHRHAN

[3] = Inhibition of Alpha-Glucosidase of Bakers yeast; NI=no inhibition; design: species or system Saccharomyces cerevisiae
[4] = biological target: T2, Tissue alpha-L-fucosidase (Bos taurus, UniProt Q2KIM0); assay: Inhibition of Alpha-fucosidase of bovine kidney; NI=no inhibition
T2 sequence (Q2KIM0 whole entry): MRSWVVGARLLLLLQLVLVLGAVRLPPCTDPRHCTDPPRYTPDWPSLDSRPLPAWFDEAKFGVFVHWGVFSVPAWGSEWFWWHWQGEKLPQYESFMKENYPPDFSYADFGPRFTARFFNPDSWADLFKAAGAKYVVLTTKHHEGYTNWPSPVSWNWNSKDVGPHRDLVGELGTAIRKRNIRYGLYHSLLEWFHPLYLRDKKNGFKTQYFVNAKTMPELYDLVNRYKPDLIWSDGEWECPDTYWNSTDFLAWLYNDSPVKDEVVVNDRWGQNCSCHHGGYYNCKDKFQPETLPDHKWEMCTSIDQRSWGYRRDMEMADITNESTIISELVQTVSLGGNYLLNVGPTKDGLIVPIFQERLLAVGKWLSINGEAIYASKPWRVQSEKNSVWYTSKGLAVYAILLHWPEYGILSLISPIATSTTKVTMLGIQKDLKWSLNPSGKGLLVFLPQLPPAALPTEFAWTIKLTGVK

[5] = Inhibition of Alpha-galactosidase of green coffee beans; NI=no inhibition
[6] = Compound was tested for the inhibition of alpha-Glucosidase of Bakers yeast; NI denotes no inhibition; design: species or system Saccharomyces cerevisiae

| SMILES | IC50 [1] [µM] | IC50 [2] [µM] | IC50 (Beta-galactosidase) | IC50 [3] | IC50 [4] | IC50 [5] | IC50 [6] |
| --- | --- | --- | --- | --- | --- | --- | --- |
| N[C@H]1C[C@H](CO)[C@@H](O)[C@H](O)[C@H]1O | 2.8 |  |  |  |  |  |  |
| CC(=O)NC1CC(CO)C(O)C(O)C1O (centres undefined) |  | > 1000 |  |  |  |  |  |
| CCCCCCCCNC1CC(CO)C(O)C(O)C1O (centres undefined) |  | > 1000 |  |  |  |  |  |
| CCCCCCCCNC1CC(C)C(O)C(O)C1O (centres undefined) |  | > 1000 |  |  |  |  |  |
| CO[C@@H]1CC2COC(C1O)[C@H]2NC1CC(CO)C(O)C(O)C1O (some centres undefined) | 1.2 |  |  |  |  |  |  |
| C=C1CC(NCCCCCCCC)C(O)C(O)C1O (centres undefined) |  | > 1000 |  |  |  |  |  |
| CCCCCCCCCCCCN[C@@H]1C[C@@H]2CO[C@H](C2O)[C@H]1O (single isomer, unassigned) |  |  | No inhibition | Not Active | Not Active | Not Active |  |
| OC1[C@H]2CO[C@H]1[C@@H](O)[C@H](NCCc1ccccc1)C2 (single isomer, unassigned) |  |  | No inhibition |  | Not Active | Not Active | Not Active |

Continued, in another order:

| IC50 [1] [µM] | IC50 [2] [µM] | IC50 (Beta-galactosidase) | IC50 [3] | IC50 [4] | IC50 [5] | SMILES | IC50 [6] |
| --- | --- | --- | --- | --- | --- | --- | --- |
|  |  | No inhibition | Not Active | Not Active | Not Active | OC1[C@H]2CO[C@H]1[C@@H](O)[C@H](NCc1ccccc1)C2 (single isomer, unassigned) |  |
|  |  | No inhibition | Not Active | Not Active | Not Active | CCCCCCCCN[C@@H]1C[C@@H]2CO[C@H](C2O)[C@H]1O (single isomer, unassigned) |  |
|  |  | No inhibition | Not Active | Not Active | Not Active | CCCCCCCCCCN[C@@H]1C[C@@H]2CO[C@H](C2O)[C@H]1O (single isomer, unassigned) |  |
|  |  | No inhibition | Not Active | Not Active | Not Active | CCCCN[C@@H]1C[C@@H]2CO[C@H](C2O)[C@H]1O (single isomer, unassigned) |  |
|  |  | No inhibition | Not Active | Not Active | Not Active | CCCCCCN[C@@H]1C[C@@H]2CO[C@H](C2O)[C@H]1O (single isomer, unassigned) |  |
